According to PubChem BioAssay (NCI):
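Five compound concentrations were applied to cells in 96-well plates for 48 hours; endpoints were derived by simple linear interpolation of the resulting dose-response curve. Here, GI50 denotes the concentration required for 50% inhibition of growth. At the TGI there is no net growth.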

Experiments:
Experiment in all cases: NCI-60 cell line screen, 48 h
[1] = system: MDA-MB-435
[2] = system: CAKI-1 renal
[3] = system: RXF 393 renal
[4] = system: SF-539 CNS
[5] = system: A498 renal
[6] = system: SN12C renal
[7] = system: EKVX NSCLC
[8] = system: SR leukemia
[9] = system: OVCAR-8 ovarian
[10] = system: CCRF-CEM leukemia

Compound | GI50 [1] | TGI [1] | GI50 [2] | TGI [2] | GI50 [3] | TGI [3] | GI50 [4] | TGI [4] | GI50 [5] | TGI [5] | GI50 [6] | TGI [6] | GI50 [7] | TGI [7] | GI50 [8] | TGI [8] | GI50 [9] | TGI [9] | GI50 [10] | TGI [10]
Cc1ccc2c(C(C[N+](=O)[O-])c3cccs3)c(-c3ccccc3)[nH]c2c1 (centres undefined) | 0.822 µM | 2.14 µM | 1.04 µM | 5.12 µM | 1.16 µM | 4.36 µM | 1.54 µM | 6.21 µM | 1.05 µM | 4.34 µM | 1.89 µM | 7.01 µM | 2 µM | 14.9 µM | 1.43 µM | > 33.3 µM | 3.55 µM | > 33.3 µM | 1.38 µM | > 33.3 µM
O=C(Nc1nc2ccccc2s1)OCC(F)(F)F | > 100 µM | > 100 µM | > 100 µM | > 100 µM | > 100 µM | > 100 µM | > 100 µM | > 100 µM | > 100 µM | > 100 µM | > 100 µM | > 100 µM |  |  | > 100 µM | > 100 µM | > 100 µM | > 100 µM | > 100 µM | > 100 µM
N#Cc1c(NC(=O)c2cccc(C(F)(F)F)c2)sc2c1CCC(=O)C2 | 0.651 µM | 2.11 µM | 0.287 µM | 1 µM | 0.391 µM | 1.45 µM | 0.329 µM | 1.23 µM | 1.71 µM | 5.5 µM | 0.851 µM | 4.05 µM | 1.67 µM | 4.26 µM | 0.347 µM | > 31.8 µM | 1.15 µM | 6.97 µM | 0.262 µM | > 100 µM
C=C1C(=O)O[C@H]2[C@H]1CC/C(CNC(=O)c1c[nH]c3ccc(F)cc13)=C\CC[C@@]1(C)O[C@@H]21 | 1.77 µM | 7.41 µM |  |  | 0.522 µM | 1.75 µM | 1.37 µM | 2.81 µM | 1.99 µM | 11.9 µM | 1.98 µM | 5.42 µM | 1.68 µM | 5.6 µM | 1.01 µM | 4.78 µM | 2.61 µM | 10.3 µM | 0.359 µM | 1.83 µM
Brc1cccc(-c2cc(-c3ccc4c(c3)OCCO4)[nH]n2)c1 | 0.186 µM | 0.97 µM | 0.953 µM | 29.8 µM | 1.77 µM | 25.7 µM | 1.8 µM | 8.48 µM | 0.563 µM | 3.89 µM | 1.47 µM | 36.8 µM | 7.21 µM | 49.6 µM | 0.581 µM | 136 µM | 1.68 µM | 40.1 µM | 1.59 µM | 250 µM
COC1(C(=O)N2Cc3nc(Cl)nc(N[C@H](C)c4cc(N)cc(C(F)(F)F)c4)c3C2)CCOCC1 | 18.6 µM | 41.4 µM | 25.4 µM | > 100 µM | 15.8 µM | 43.6 µM | 15.2 µM | 29.8 µM | 11.2 µM | 58.6 µM | 12.4 µM | 53.4 µM | 14.1 µM | > 100 µM | 2.92 µM | 48.8 µM | 23.1 µM | > 88.5 µM | 31.3 µM | 99 µM
C=CC(=O)N[C@H]1C=C(C)c2c(-c3cnc4ccccc4c3)c3c(N)ncnc3n2C1 | 17.8 µM | 67 µM | 1.82 µM | 17.6 µM | 2.68 µM | 11.7 µM | 13.3 µM | 31.6 µM | 0.351 µM | 3.99 µM | 12.9 µM | 98.2 µM | 0.0785 µM | 42.6 µM | 18.3 µM | > 100 µM | 16.7 µM | > 100 µM | 22.3 µM | > 100 µM
O=C1/C(=C/c2ccc(F)cc2)CCOc2ccc([N+](=O)[O-])cc21 | 1.94 µM | 7.26 µM | 2.08 µM | 4.73 µM | 1.71 µM | 3.7 µM | 2.52 µM | 5.99 µM | 17.4 µM | 35 µM | 6.97 µM | 21 µM | 16.5 µM | 30.5 µM | 2.07 µM | 6.35 µM | 2.68 µM | 9.24 µM | 0.761 µM | 3.47 µM
CCN1CCN(c2nc(NCCCNc3ccnc4cc(Cl)ccc34)c3ccccc3n2)CC1 | 1.92 µM | 3.53 µM |  |  | 1.51 µM | 3.29 µM | 1.71 µM | 3.34 µM | 11.3 µM | 23.5 µM | 2.6 µM | 11.5 µM | 3.03 µM | 14.4 µM | 1.29 µM | 5.44 µM | 3.5 µM | 12.9 µM | 2.88 µM | 10.3 µM
CN1CCN(CC#Cc2cccc(C(=O)c3cnn(-c4ccc(F)cc4)c3N)c2)CC1 | > 25 µM | > 25 µM | > 25 µM | > 25 µM | > 25 µM | > 25 µM | > 25 µM | > 25 µM | > 25 µM | > 25 µM | > 25 µM | > 25 µM |  |  | > 25 µM | > 25 µM | > 25 µM | > 25 µM | > 25 µM | > 25 µM
CCCCCCCCCCCCCC(=S)NCCCC[C@H](NC(=O)OCc1ccccc1)C(=O)Nc1ccccc1 | 5.3 µM | > 100 µM |  |  | 5.91 µM | > 100 µM | 10.7 µM | > 100 µM | 3.75 µM | > 100 µM | 3.81 µM | > 100 µM |  |  | 3.9 µM | > 100 µM | 4.35 µM | > 100 µM | 4.04 µM | > 100 µM
Oc1ccccc1/C=N/Nc1ccc2ccccc2n1 | 6.42 µM | > 100 µM | 2.98 µM | > 100 µM | 18.3 µM | > 100 µM | 3.5 µM | 59.4 µM | 7.03 µM | > 100 µM | 4.92 µM | > 100 µM |  |  | 4.35 µM | > 100 µM | 4.23 µM | 59.1 µM | 0.862 µM | > 100 µM
CN=C(N)N/N=C(\c1ccccc1)c1ccc(Br)cc1 | 0.179 µM | 0.511 µM | 0.596 µM | 13.2 µM | 0.247 µM | 0.711 µM | 0.218 µM | 0.537 µM | 0.232 µM | 1.01 µM | 0.451 µM | 6.27 µM |  |  | 0.31 µM | 2.42 µM | 0.369 µM | 5.16 µM | 0.32 µM | 4.66 µM
